Assays:
Type in all cases: cell-based
[1] = test system: carcinogenic cell lines; experiment: Flow cytometric analysis of apoptosis and necrosis (Apoptosis, Necrosis and Healthy Cell Quantitation Kit Plus); conditions: IC50 concentration, 24-h incubation
[2] = test system: carcinogenic cell lines; experiment: as above; conditions: IC50 concentration, 24-h incubation; remark: listed apart in the source
From the text: The flow cytometer was used to calculate the percentages of apoptotic and necrotic cells in four different quadrants, which are denoted by the letters “UL, UR, LL, LR” (Upper Left, Upper Right, Lower Left, Lower Right). The four distinct quadrants in the diagram represent the following areas, respectively: Apoptotic or early apoptotic cells, LR: CF488A+/(EthD-III)-; necrotic or late apoptotic cells, […]: CF488A+/(EthD-III)+; intact cells, LL: CF488A/(EthD-III); and dead or necrotic cells, UR: CF488A+/(EthD-III)+. The IC50 concentration of each substance was used in administration.
Death pathway of the carcinogenic cell lines was detected by Apoptosis, Necrosis and Healthy Cell Quantitation Kit Plus (Cat: 30066, Biotium, Hayward, CA, USA)[22] as reported in the manufacturer’s instruction. The IC50 values for doxorubicin and compound 2j were applied. Cells were collected by centrifugation at 1200 rpm for 5 min following a 24-h incubation period. It was washed 2 times with PBS, centrifuged and turned into pellets. One ×10^6 cells/mL of annexin were suspended in V-FITC binding buffer. Ethidium iodide ([…]), Hoestch 1 mL, and annexin V-FITC ([…]) were added to stain cells and using the CytoFLEX Flow Cytometer (Beckman Coulter Life Sciences, USA) and CytExpert for CytoFLEX Acquisition and Analysis Software Version 2.2.0.97 instrument. Fluorescence measurements were made using a flow cytometer in accordance with the instrument procedure.

[3] = test system: HepG2 cell line; experiment: MTT cytotoxicity test; conditions: Homo sapiens, 24-h treatment, means of quartet assays ± SEM
Protocol: (§1) The MTT test was performed using 3 different cell lines for calculated IC50 values of obtained compounds. […] For this purpose, the cytotoxic effects of the compounds against the healthy mouse fibroblast cell (NIH3T3) were investigated.
(§2) The 3-(4,5-dimethylthiazol-2-yl)-2,5-diphenyltetrazolium salt reduction method, or MTT assay, is used to measure the metabolic activity of live cells. […] Doxorubicin is used as a therapeutic drug. MTT assays were carried out as previously explained.[19]

[4] = test system: A549 cell line; experiment: MTT cytotoxicity test; conditions: Homo sapiens, A549, 24 h, MTT, 24-h treatment, means of quartet assays ± SEM
Protocol: as §1, §2

[5] = test system: A549 cell line; experiment: Analysis of mitochondrial membrane potential (MMP) by flow cytometry, JC-1 dye; conditions: A549, IC50 concentration, 24-h incubation
Protocol: After a 24-h incubation period, mitochondrial membrane potential was measured with JC-1 dye.
The BD Mitoscreen Mitochondrial Membrane Potential Detection JC-1 Kit (available from ref ([23])) was used for the MMP test. First, A549 cells were seeded in 25 mL flasks and incubated for 24 h in a 5% CO2 incubator. […] At the end of this period, cells were collected and centrifuged in accordance with the kit contents. After the upper part was removed, JC-1 dye was added and incubated at 37 °C for 10–15 min. At the end of the period, it was washed 2 times with washing solution and reading was done with the appropriate procedure using the CytoFLEX Flow Cytometer (Beckman Coulter Life Sciences, USA) and CytExpert for CytoFLEX Acquisition and Analysis Software Version 2.2.0.97.

[6] = test system: healthy mouse fibroblast cell (NIH3T3); experiment: MTT cytotoxicity test on healthy cells; conditions: 24-h treatment, means of quartet assays ± SEM
Protocol: as §1, §2

In the case of `COc1cccc2c1C(=O)c1c(O)c3c(c(O)c1C2=O)C[C@@](O)(C(=O)CO)C[C@@H]3O[C@H]1C[C@H](N)[C@H](O)[C@H](C)O1` [SD4, Doxorubicin, reference compound], the “late apoptosis (Q1-UR)” value [1] is reported as 8.84%, the “early apoptosis (Q1-LR)” value [2] is reported as 8.55% and the “intact cells (Q1-LL)” value [2] is reported as 80.85%. For the same molecule, the “necrosis (Q1-UL)” value [2] was 1.76%, the “rate of apoptosis (early + late apoptosis)” value [2] was 17.4% and the IC50 [3] was 9.47 ± 1.49 µM. The IC50 [4] was 2.97 ± 0.16 µM, the “mitochondrial membrane potential (P3)” value [5] was 30.270% and the IC50 [6] was > 100 µM.
